How the values were obtained:
[1] = test system: epilepsy mouse models, AppSWE/PsenIdE9 mice; test: PTZ seizure severity (Racine scale) in different epilepsy mouse models and AppSWE/PsenIdE9 mice; type: in vivo; conditions: 0.3 mg/kg IP daily×14 days; PTZ 50 mg/kg IP; n=5 per group
Excerpt: In this regard, an asterisk stands for the mutant protein aggregation in the neurons in related mouse models.

GABAA receptor subunits = test: Surface GABAA receptor subunit expression in Scn1a+/- mice; type: in vivo, mouse; conditions: 0.3 mg/kg IP for 14 days, cortex and thalamus
Procedure: The biotinylated surface proteins from either cortex (FIG. 15A) or thalamus (FIG. 15B) were analyzed by SDS-PAGE and immunoblotted with anti-GABAA receptor al subunit antibody. The protein IDVs of al subunits were normalized to its loading control and then to that in either cortex (cor) or thalamus (tha) in untreated wild-type mice (n==4) (FIGS. 15C and 15D). […] In FIGS. 15E and 15G, MJ stands for myoclonic jerks with behavioral correlation while GTCS for generalized tonic clonic seizures. The number of myoclonic jerks (MJ) and generalized tonic clonic seizures (GTCS) is the total number over 24 hrs. In G, mice were from the same litter, n=2 for each genotype.

[2] = test system: cultured cortical neurons from the wild-type mouse brains; test: Neuronal viability, trypan blue exclusion; type: cell-based; conditions: 0-8 μm for 4 hours, at the therapeutic levels
Procedure: The neuronal viability was determined with membrane integrity by trypan blue exclusion method^12. The mean survival was determined by counting eight randomly selected, non-overlapping fields with each containing approximately 10-20 neurons (viable+nonviable) (n=4 different cultures). GABAAR expression was determined by the high-throughput flow cytometry. HEK 293T cells were transfected with human α1, β2 and γ2 subunit cDNAs at 1:1:1 ratio for 48 hours. The α1 subunit was chosen as readout. The anti-α1 antibody was directly conjugated with Alexa 488 (data are mean±SEM, n=4). The healthy population was gated.

CYP 2C19 = CYP 2C19 (Homo sapiens, UniProt P33261); test: biochemical
Scn1a^+/− mice = test: PTZ-induced seizures in Scn1a+/- mice after 14 days treatment; type: in vivo, mouse; conditions: 0.3 mg/kg IP 14 days; PTZ 50 mg/kg IP
[3] = Brain and plasma concentration of celastrol in mice (IP, oral gavage)
Excerpt: For chronic dosing, samples were collected 2 hrs after drug administration.
Blood samples for drug bioanalysis will be collected in EDTA plasma tubes, immediately centrifuged, and the plasma fraction frozen at −80 C until analysis. Whole brains will also be frozen until analysis. […] Study samples, standards, and quality control samples will be precipitated with acetonitrile containing an internal standard, centrifuging the samples, and then injecting the supernatant onto a reverse phase LC/MS/MS system. Assay performance will be checked with retention time, peak shape, and quality control samples. The free drug concentration from animal studies will be calculated by multiplying the in vitro plasma free fraction (funbound) by the determined plasma concentrations. […] GABAA receptor subunits, AKT and neuronal survival signaling molecules, heat shock protein and synaptic scaffold proteins will be the focus.

[4] = Tolerability of repeated daily IP dosing in mice; type: in vivo
[5] = target: T1, GABAA α1β2γ2(R82Q) receptors (Homo sapiens, UniProt P14867+P18507+P47870, R82Q); test: Patch clamp current amplitude, α1β2γ2(R82Q) receptors in HEK 293T cells; type: cell-based; conditions: 1 μm, 4 hrs; GABA 1 mM
T1 construct: expressed in transfected cells; host or cells: HEK 293T
Procedure: HEK 293T cells were transfected with the human GABAA receptor α1, β2 subunits with the wild-type γ2s, the mutant γ2s(Q390X) or γ2s(R82Q) subunits for 48 hrs. […] A. Lifted whole cells were recorded with the application of GABA 1 mM for 6 sec. Cells was voltage clamped at −50 mV.
HEK 293T cells were transfected with the human GABAA receptor α1, β2 subunits with the wild-type γ2s, the mutant γ2s(Q390X) or γ2s(R82Q) subunits for 48 hrs.

[6] = test system: GABAA receptor α1 and γ2 subunits; test: Surface and total GABAA receptor subunit expression in Gabrg2+/Q390X mice; type: in vivo, mouse
Procedure: As shown in FIG. 14A upper panel, the surface proteins (FIG. 14A) from the live mouse brain slices were biotinylated and analyzed by SDS-PAGE and immunoblotted with anti-γ2 or anti-al subunit antibody. In the lower panel, the protein from total lysates of cortex was analyzed by SDS-PAGE and immunoblotted with anti-γ2 subunit antibody. LC is the loading control GAPDH in the blots. FIG. 14B charts the protein IDVs of surface wild-type γ2 or al subunits (upper panel) or total level wild-type γ2 subunits (lower panel) were normalized to its loading control and then to that in untreated wild-type mice which was arbitrarily taken as 1.

[7] = test system: synaptic scaffold protein gephyrin; test: Gephyrin staining in brain sections of Gabrg2+/Q390X mice; type: in vivo, mouse; conditions: 0.3 mg/kg for 14 days
Excerpt: Synaptosomes from mouse forebrains were isolated by subcellular fractionation^7. The samples were then fractionated by SDS-PAGE and immunoblotted by rabbit polyclonal anti-γ2 subunit antibody and synaptic scaffold proteins including gephyrin, collybistin, synaptogamin 1 and neuroligin II. The γ2 subunit protein and synaptic scaffold proteins were reduced in the Gabrg2^+/Q390X (het) mice. (FIG. 18A). […] The sections were then stained with rabbit anti-γ2 subunit (green) and mouse monoclonal anti-gephyrin (red) antibodies. The nuclei were stained with TO-PRO-3. (FIG. 18B). The raw fluorescence values of gephyrin was measured by ImageJ. […] (FIG. 18C).

[8] = rats; cited from earlier work
Gabrb3^+/− mice = test: Barnes maze, Gabrb3+/- mice; type: in vivo, mouse; conditions: 0.3 mg/kg IP for 2 weeks, 6-8 months old
Procedure: Flow chart in FIG. 13A depicts an overview of the Barnes maze. In training trials which are considered as learning test, time spent to locate the target hole was recorded and quantified for each day in each mouse genotype. In probe trials which are considered as memory test, an hour after the last training trial, each mouse was allotted a 300 sec session to find the target hole. […]. The total time spent at each of the 12 holes was assessed.

CYP 2C9 = CYP 2C9 (Homo sapiens, UniProt P11712); test: biochemical
[9] = In vivo exposure (IV and PO) in rat

Chain of CYP 2C9 (P11712 whole entry): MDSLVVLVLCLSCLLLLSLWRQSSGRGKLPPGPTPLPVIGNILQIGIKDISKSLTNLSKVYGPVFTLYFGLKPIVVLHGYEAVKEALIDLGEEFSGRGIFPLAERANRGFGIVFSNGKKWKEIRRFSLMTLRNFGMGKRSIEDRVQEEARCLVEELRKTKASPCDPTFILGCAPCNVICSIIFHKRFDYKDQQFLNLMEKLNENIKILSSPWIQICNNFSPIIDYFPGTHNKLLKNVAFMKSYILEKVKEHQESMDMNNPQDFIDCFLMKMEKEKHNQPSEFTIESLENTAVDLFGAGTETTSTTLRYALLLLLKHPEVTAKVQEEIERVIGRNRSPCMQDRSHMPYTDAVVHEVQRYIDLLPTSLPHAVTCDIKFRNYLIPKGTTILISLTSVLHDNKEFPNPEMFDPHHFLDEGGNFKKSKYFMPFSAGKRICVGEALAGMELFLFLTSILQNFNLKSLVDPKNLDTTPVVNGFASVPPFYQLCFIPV
T1 sequence (P14867 28-456): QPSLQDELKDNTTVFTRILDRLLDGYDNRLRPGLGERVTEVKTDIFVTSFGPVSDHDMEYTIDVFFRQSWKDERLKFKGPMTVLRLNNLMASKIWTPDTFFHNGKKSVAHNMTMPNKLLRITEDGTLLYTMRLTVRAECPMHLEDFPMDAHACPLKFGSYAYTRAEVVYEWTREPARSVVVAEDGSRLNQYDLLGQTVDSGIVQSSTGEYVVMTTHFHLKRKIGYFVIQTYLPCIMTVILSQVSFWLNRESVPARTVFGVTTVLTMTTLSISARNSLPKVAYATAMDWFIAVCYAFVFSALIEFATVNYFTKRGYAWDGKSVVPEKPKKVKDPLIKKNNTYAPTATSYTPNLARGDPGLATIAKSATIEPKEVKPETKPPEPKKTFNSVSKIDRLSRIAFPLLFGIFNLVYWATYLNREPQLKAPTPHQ
T1 sequence (P47870 25-512 limits assumed): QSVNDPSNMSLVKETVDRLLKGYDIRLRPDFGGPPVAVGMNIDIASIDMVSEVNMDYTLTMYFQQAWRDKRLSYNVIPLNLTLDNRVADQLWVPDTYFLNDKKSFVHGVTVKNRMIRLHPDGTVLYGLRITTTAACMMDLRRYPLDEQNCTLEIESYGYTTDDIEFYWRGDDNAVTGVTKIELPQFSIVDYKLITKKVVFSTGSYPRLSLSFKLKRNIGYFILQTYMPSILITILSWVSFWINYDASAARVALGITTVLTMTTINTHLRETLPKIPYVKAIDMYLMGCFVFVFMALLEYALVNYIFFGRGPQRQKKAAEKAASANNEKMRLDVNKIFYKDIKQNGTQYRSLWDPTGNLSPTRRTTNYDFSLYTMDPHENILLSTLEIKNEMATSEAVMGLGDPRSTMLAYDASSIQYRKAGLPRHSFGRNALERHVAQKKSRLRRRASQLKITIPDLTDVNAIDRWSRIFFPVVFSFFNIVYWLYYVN
T1 sequence (P18507 40-467 isoform P18507-1 R82Q limits assumed): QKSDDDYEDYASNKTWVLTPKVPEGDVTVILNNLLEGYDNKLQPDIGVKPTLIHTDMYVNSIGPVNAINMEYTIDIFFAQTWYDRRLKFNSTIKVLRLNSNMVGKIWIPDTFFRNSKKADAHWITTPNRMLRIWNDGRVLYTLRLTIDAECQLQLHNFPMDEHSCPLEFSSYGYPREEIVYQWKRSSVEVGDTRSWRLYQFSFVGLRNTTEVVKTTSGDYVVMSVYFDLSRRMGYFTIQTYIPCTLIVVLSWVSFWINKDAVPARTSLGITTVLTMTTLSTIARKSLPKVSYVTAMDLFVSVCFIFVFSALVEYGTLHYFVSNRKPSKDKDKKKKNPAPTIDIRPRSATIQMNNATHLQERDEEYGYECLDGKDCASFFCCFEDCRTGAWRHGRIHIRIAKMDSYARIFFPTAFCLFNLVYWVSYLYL
Chain of CYP 2C19 (P33261 whole entry): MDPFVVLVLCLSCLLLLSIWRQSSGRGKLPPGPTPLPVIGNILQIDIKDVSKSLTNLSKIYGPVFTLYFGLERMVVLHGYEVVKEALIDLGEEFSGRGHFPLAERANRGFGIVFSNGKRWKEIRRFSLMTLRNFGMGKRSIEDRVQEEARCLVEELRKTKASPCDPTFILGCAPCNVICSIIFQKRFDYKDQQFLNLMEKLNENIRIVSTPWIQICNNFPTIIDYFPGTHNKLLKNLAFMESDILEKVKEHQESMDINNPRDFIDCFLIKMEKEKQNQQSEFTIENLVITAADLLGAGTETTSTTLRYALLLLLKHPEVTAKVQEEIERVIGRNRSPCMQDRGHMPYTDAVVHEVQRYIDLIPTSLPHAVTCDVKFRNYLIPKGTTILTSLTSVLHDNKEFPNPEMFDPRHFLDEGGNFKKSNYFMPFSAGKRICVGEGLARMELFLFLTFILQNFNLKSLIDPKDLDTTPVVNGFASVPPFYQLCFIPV

Structure (SMILES): CC1=C(O)C(=O)C=C2C1=CC=C1[C@@]2(C)CC[C@@]2(C)[C@@H]3C[C@](C)(C(=O)O)CC[C@]3(C)CC[C@]12C [Celastrol, 3-Hydroxy-9β,13α-dimethyl-2-oxo-24,25,26-trinoroleana-1(10),3,5,7-tetraen-29-oic acid]
- seizure severity [1]: reduced seizure severity
- surface GABAA receptor subunit expression (GABAA receptor subunits): Increased
- cell viability [2]: no reduced cell viability
- IC50 (CYP 2C19): > 10 µM
- seizure threshold and seizures after PTZ (Scn1a^+/− mice): increased seizure threshold and decreased seizures
- celastrol concentration in the mouse brain ([3]; level with good efficacy): 120-150 nm
- Kp at 24 h ([3]; mouse, brain, intraperitoneal, 0.3 mg/kg): > 1.2
- concentration at 2 h ([3]; mouse, brain, po, 3 mg/kg): 121 nM
- adverse signs ([4]; 3 and 6 mg/kg IP daily, Gabrg2^+/Q390X mice): lethargy, unkempt fur
- adverse signs ([4]; IP 3 mg/kg daily for 5 days, starting at day 4): lethargy, unkempt fur and weight loss
- tolerability ([4]; IP 0.3, 0.6 and 1.5 mg/kg daily for 7 days, C57BL/6J mice): tolerated well
- adverse effect at doses other than 3 and 6 mg/kg ([4]; IP daily 2 weeks or oral gavage 14 days): no adverse effect
- current amplitude [5]: increased
- surface and total α1 and γ2 subunits ([6]; 0.3 mg/kg IP for 14 days, n=4 mice): increase of both the surface and total α1 and γ2 subunits were greater in the mutant mice than in the wildtype
- increase of surface γ2 subunits compared with mutant mice treated with vehicle ([6]; 0.3 mg/kg, ip): 40-50%
- gephyrin puncta [7]: increased gephyrin puncta
- oral bioavailability (reported) [8]: 17.1%
- time spent at target hole in probe trial (Gabrb3^+/− mice): spent more time in the target hole area
- IC50 (CYP 2C9): 4.88 µM
- half-life [9]: 10 h
- bioavailability ([9]; po): 7.8%
